Laboratory results as given in paper PMC8268887, “Peptide/β-Peptoid Hybrids with Ultrashort PEG-Like Moieties: Effects on Hydrophobicity, Antibacterial Activity and Hemolytic Properties” (International Journal of Molecular Sciences, 2021).
Converted amounts (≈) assume the structure as drawn. Where two headings read alike, the source gives them in different places.

How the values were obtained:
[1] = Hydrophobicity by retention in analytical RP-HPLC (% MeCN at peak elution); assay type: physicochemical; conditions: for % MeCN at Elution, Aeris Peptide: Phenomenex Aeris Peptide XB-C18 column; for % MeCN at Elution, Aeris Peptide / % MeCN at Elution, Luna Omega / % MeCN at Elution, Supelco Discovery: gradient 0→60% B during 15 min; for % MeCN at Elution, Luna: Phenomenex Luna C18(2) column, RP-HPLC gradient 0→60% B during 15 min, relative hydrophobicity; for % MeCN at Elution, Luna Omega: Phenomenex Luna Omega Polar C18 column; for % MeCN at Elution, Supelco Discovery: Supelco Discovery BIO Wide pore C18 column
Experimental: For each peptide/β-peptoid hybrid oligomer, the retention time in RP-HPLC was measured on four different columns (details shown in Table 2): Phenomenex Luna C18(2) column (recommended for hydrophobic compounds [49]), Phenomenex Luna Omega Polar C18 column (recommended for both very polar and non-polar compounds [50]) as well as Phenomenex Aeris Peptide XB-C18 [51] and Sigma-Aldrich Supelco Discovery BIO Wide pore C18 [52] columns, which both are recommended for analysis of peptides. The retention times of the compounds on each column were used to calculate the acetonitrile concentration at peak elution (denoted merely as % MeCN; Table 1). As expected, the % MeCN for each compound varied somewhat between the four columns.
Starting materials and solvents were acquired from commercial suppliers (Iris Biotech, Markredwitz, Germany; Fluorochem, Hadfield, UK; and Merck, Darmstadt, Germany) and used without further purification. Water used for analytical and preparative high-performance liquid chromatography (HPLC) was filtered through a 0.22-μm capsule filter using an Evoqua LaboStar Pro TWF UV system. Purity and retention time of each peptidomimetic were determined by analytical HPLC by using a Phenomenex Luna Omega Polar C18 column (150 × 4.6 mm; particle size: 3 μm; pore size: 100 Å) on a Shimadzu Prominence and Shimadzu Nexera system using an aqueous acetonitrile (MeCN, VWR, Søborg, Denmark) gradient with 0.1% trifluoroacetic acid (TFA, Iris Biotech, Markredwitz, Germany) added (eluent A: 5:95 MeCN–H2O + 0.1% TFA, eluent B: 95:5 MeCN–H2O + 0.1% TFA); a flow rate of 0.8 mL/min was used. For elution of peptidomimetics, a linear gradient of 0% to 60% B during 15 min was used with UV detection at λ = 220 nm. […] Retention time of each peptidomimetic was also determined by using a Phenomenex Luna C18(2) column (150 × 4.6 mm; particle size: 3 μm; pore size: 100 Å), a Phenomenex Aeris Peptide XB-C18 column (150 × 4.6 mm; particle size: 3.6 μm; pore size: 100 Å), and a Sigma-Aldrich Supelco Discovery BIO Wide pore C18 column (150 × 4.6 mm, particle size: 3 µm; pore size: 300 Å). For each peptidomimetic, the percentage of MeCN at peak elution was calculated from the retention time by using the following formula:(1) %MeCN =0.95 (0.6Rt/15 min)+0.05 (1−0.6Rt/15 min)

E. coli ATCC 25922 = assay type: cell-based, Escherichia coli; conditions: ATCC 25922, 20 h
Experimental: (§1) MIC values of the peptidomimetics were evaluated by using the modified Hancock lab protocol in non-binding polystyrene microtiter plates. Bacterial suspensions of ~5 × 10^5 CFU/mL in Mueller-Hinton broth (Difco, Sparks, MD, USA) were prepared with Mg^2+ and Ca^2+ concentrations of 4 mg/L each. The compounds were dissolved in H2O and diluted in 0.01% acetic acid, 0.2% BSA (final concentration). Aliquots (11 µL) of test compounds were then transferred to wells containing bacterial suspensions (100 µL). Low-binding sterile tubes and tips (Axygen, Union City, CA, USA) were used for preparation and transfer of the solutions of the compounds. Following incubation for 20 h of the covered plates at 35 °C (±2 °C) with circular shaking at 180 rpm, the MICs were read.

E. coli NMI 3371/16 = assay type: cell-based, Escherichia coli; conditions: NMI 3371/16, 20 h
Experimental: as §1

E. coli NMI 3898/15 = assay type: cell-based, Escherichia coli; conditions: NMI 3898/15, 20 h
Experimental: as §1

E. faecalis ATCC 29212 = assay type: cell-based; conditions: ATCC 29212, 20 h
Experimental: as §1

K. pneumoniae ATCC 13883 = assay type: cell-based; conditions: ATCC 13883, 20 h
Experimental: as §1

[2] = tested on: P. aeruginosa NMI 7197/19; assay type: cell-based, Pseudomonas aeruginosa; conditions: NMI 7197/19, 20 h
Experimental: as §1

P. aeruginosa PAO1 = assay type: cell-based, Pseudomonas aeruginosa
Experimental: as §1

A. baumannii ATCC 19606 = assay type: cell-based, Acinetobacter baumannii; conditions: ATCC 19606, 20 h
Experimental: as §1

A. baumannii NMI 3658/17 = assay type: cell-based, Acinetobacter baumannii; conditions: NMI 3658/17, 20 h
Experimental: as §1

S. aureus ATCC 29213 = assay type: cell-based, Staphylococcus aureus; conditions: ATCC 29213, 20 h
Experimental: as §1

[3] = Determination of hemolytic activity; assay type: cell-based; conditions: red blood cell suspension in PBS buffer, human red blood cells at 400 µg/mL, 37 °C
Experimental: The lysis of human red blood cells was measured almost as previously described, albeit with modifications. In brief, a suspension of freshly drawn human red blood cells (hRBCs) was washed three times with PBS buffer and centrifuged two times for 5 min at 2500 rpm. A two-fold serial dilution of compounds in PBS buffer was prepared. Plates (conical-bottomed 96-well plates) with three replicate wells per dilution, each containing 1% red blood cell suspension, were prepared and dosed with the test compound to achieve a final concentration of 400 μg/mL in a total volume of 100 μL. The plates were incubated (37 °C) for 60 min with mild agitation, and then the cells were pelleted by centrifugation at 1500 rpm for 5 min. The supernatants (50 μL) were then transferred to a fresh 96-well plate, and the concentration of hemoglobin was detected by measuring the OD at 405 nm. The OD of cells incubated with 1% SDS defined 100% hemolysis, while the OD of cells incubated with PBS buffer defined 0% hemolysis. The concentration tested was 400 μg/mL (only average values are stated in Table 5). The percent hemolysis was calculated by using the formula:(3) Hemolysis (%)=100×[Asample−Aneg.control/Apos.control−Aneg.control]

## NCCCC[C@H](NC(=O)CCN(Cc1ccc(F)cc1)C(=O)[C@H](CCCCN)NC(=O)CCN(Cc1ccc(F)cc1)C(=O)[C@H](CCCCN)NC(=O)CCN(Cc1ccc(F)cc1)C(=O)[C@H](CCCCN)NC(=O)CCN(Cc1ccc(F)cc1)C(=O)[C@H](CCCCN)NC(=O)CCN(Cc1ccc(F)cc1)C(=O)[C@H](CCCCN)NC(=O)COCCOCCN)C(=O)N(CCC(N)=O)Cc1ccc(F)cc1 [Compound 2, H-sPEG2-[X]6-NH2]
[1]
  % MeCN at Elution, Aeris Peptide: 39.4 % MeCN
  % MeCN at Elution, Luna: 41.4 % MeCN
  % MeCN at Elution, Luna Omega: 41.9 % MeCN
  % MeCN at Elution, Supelco Discovery: 41.5 % MeCN
E. coli ATCC 25922
  MIC, EC: 8 µg/mL (≈ 3.99 µM)
E. coli NMI 3371/16
  MIC, E. coli NMI 3371/16: 8 µg/mL (≈ 3.99 µM)
E. coli NMI 3898/15
  MIC, E. coli NMI 3898/15: 16 µg/mL (≈ 7.97 µM)
E. faecalis ATCC 29212
  MIC, EF: >64 µg/mL
K. pneumoniae ATCC 13883
  MIC, KP: >64 µg/mL
[2]
  MIC, P. aeruginosa NMI 7197/19: >64 µg/mL
P. aeruginosa PAO1; PAO1, 20 h
  MIC, PA: 32 µg/mL (≈ 15.9 µM)
A. baumannii ATCC 19606
  MIC, AB: 4 µg/mL (≈ 1.99 µM)
A. baumannii NMI 3658/17
  MIC, A. baumannii NMI 3658/17: 4 µg/mL (≈ 1.99 µM)
S. aureus ATCC 29213
  MIC, SA: 32 to 64 µg/mL
[3]
  hemolysis at 60 min: 2.4%

## NCCCC[C@H](NC(=O)CCN(Cc1ccc(F)cc1)C(=O)[C@H](CCCCN)NC(=O)CCN(Cc1ccc(F)cc1)C(=O)[C@H](CCCCN)NC(=O)CCN(Cc1ccc(F)cc1)C(=O)[C@H](CCCCN)NC(=O)CCN(Cc1ccc(F)cc1)C(=O)[C@H](CCCCN)NC(=O)CCN(Cc1ccc(F)cc1)C(=O)[C@H](CCCCN)NC(=O)CCOCCOCCOCCOCCN)C(=O)N(CCC(N)=O)Cc1ccc(F)cc1 [Compound 3, H-sPEG4-[X]6-NH2]
[1]
  % MeCN at Elution, Aeris Peptide: 39.6 % MeCN
  % MeCN at Elution, Luna: 41.9 % MeCN
  % MeCN at Elution, Luna Omega: 42.4 % MeCN
  % MeCN at Elution, Supelco Discovery: 42.6 % MeCN
E. coli ATCC 25922
  MIC, EC: 8 µg/mL (≈ 3.79 µM)
E. coli NMI 3371/16
  MIC, E. coli NMI 3371/16: 8 µg/mL (≈ 3.79 µM)
E. coli NMI 3898/15
  MIC, E. coli NMI 3898/15: 16 µg/mL (≈ 7.59 µM)
E. faecalis ATCC 29212
  MIC, EF: >64 µg/mL
K. pneumoniae ATCC 13883
  MIC, KP: >64 µg/mL
[2]
  MIC, P. aeruginosa NMI 7197/19: >64 µg/mL
P. aeruginosa PAO1; PAO1, 20 h
  MIC, PA: 32 to 64 µg/mL
A. baumannii ATCC 19606
  MIC, AB: 4 to 8 µg/mL
A. baumannii NMI 3658/17
  MIC, A. baumannii NMI 3658/17: 4 to 8 µg/mL
[3]
  hemolysis at 60 min: 8.1%

## NCCCC[C@H](NC(=O)CCN(Cc1ccc(F)cc1)C(=O)[C@H](CCCCN)NC(=O)CCN(Cc1ccc(F)cc1)C(=O)[C@H](CCCCN)NC(=O)CCN(Cc1ccc(F)cc1)C(=O)[C@H](CCCCN)NC(=O)CCN(Cc1ccc(F)cc1)C(=O)[C@H](CCCCN)NC(=O)CCN(Cc1ccc(F)cc1)C(=O)[C@H](CCCCN)NC(=O)COCCOCCN)C(=O)N(CCC(=O)NCCOCCOCC(N)=O)Cc1ccc(F)cc1 [Compound 4, H-sPEG2-[X]6-sPEG2-NH2]
[1]
  % MeCN at Elution, Aeris Peptide: 39.2 % MeCN
  % MeCN at Elution, Luna: 41.3 % MeCN
  % MeCN at Elution, Luna Omega: 42.1 % MeCN
  % MeCN at Elution, Supelco Discovery: 41.4 % MeCN
E. coli ATCC 25922
  MIC, EC: 8 to 16 µg/mL
E. coli NMI 3371/16
  MIC, E. coli NMI 3371/16: 8 to 16 µg/mL
E. coli NMI 3898/15
  MIC, E. coli NMI 3898/15: 16 to 32 µg/mL
E. faecalis ATCC 29212
  MIC, EF: >64 µg/mL
K. pneumoniae ATCC 13883
  MIC, KP: >64 µg/mL
[2]
  MIC, P. aeruginosa NMI 7197/19: >64 µg/mL
P. aeruginosa PAO1; PAO1, 20 h
  MIC, PA: 16 µg/mL (≈ 7.44 µM)
A. baumannii ATCC 19606
  MIC, AB: 4 µg/mL (≈ 1.86 µM)
A. baumannii NMI 3658/17
  MIC, A. baumannii NMI 3658/17: 4 to 8 µg/mL
S. aureus ATCC 29213
  MIC, SA: >64 µg/mL
[3]
  hemolysis at 60 min: 5.4%

## NCCCC[C@H](NC(=O)CCN(Cc1ccc(F)cc1)C(=O)[C@H](CCCCN)NC(=O)CCN(Cc1ccc(F)cc1)C(=O)[C@H](CCCCN)NC(=O)CCN(Cc1ccc(F)cc1)C(=O)[C@H](CCCCN)NC(=O)CCN(Cc1ccc(F)cc1)C(=O)[C@H](CCCCN)NC(=O)CCN(Cc1ccc(F)cc1)C(=O)[C@H](CCCCN)NC(=O)CCOCCOCCOCCOCCN)C(=O)N(CCC(=O)NCCOCCOCCOCCOCCC(N)=O)Cc1ccc(F)cc1 [Compound 5, H-sPEG4-[X]6-sPEG4-NH2]
[1]
  % MeCN at Elution, Aeris Peptide: 40.0 % MeCN
  % MeCN at Elution, Luna: 42.2 % MeCN
  % MeCN at Elution, Luna Omega: 43.2 % MeCN
  % MeCN at Elution, Supelco Discovery: 42.5 % MeCN
E. coli ATCC 25922
  MIC, EC: 16 µg/mL (≈ 6.79 µM)
E. coli NMI 3371/16
  MIC, E. coli NMI 3371/16: 8 to 16 µg/mL
E. coli NMI 3898/15
  MIC, E. coli NMI 3898/15: 32 µg/mL (≈ 13.6 µM)
E. faecalis ATCC 29212
  MIC, EF: >64 µg/mL
K. pneumoniae ATCC 13883
  MIC, KP: >64 µg/mL
[2]
  MIC, P. aeruginosa NMI 7197/19: >64 µg/mL
P. aeruginosa PAO1; P. aeruginosa PAO1 (WT)
  MIC, PA: > 64 µg/mL
A. baumannii NMI 3658/17
  MIC, A. baumannii NMI 3658/17: 16 µg/mL (≈ 6.79 µM)
S. aureus ATCC 29213
  MIC, SA: >64 µg/mL
[3]
  hemolysis at 60 min: 6.4%
